Results published in patent US9896441B2 (Lycera Corporation, priority 2014, dated 2018).
pEC50: −log10 of the molar value.

Assays:
Gal4-RORγ-LBD = biological target: T1, Gal4-RORγ-LBD (Homo sapiens, UniProt P51449); assay: Gal4-RORγ Luciferase Reporter Assay in HEK-293T Cells; type: cell-based; conditions: HEK-293 cells, luciferase reporter, with ursolic acid
T1 construct: expressed in transfected cells
T1 sequence (P51449 269-508 limits assumed): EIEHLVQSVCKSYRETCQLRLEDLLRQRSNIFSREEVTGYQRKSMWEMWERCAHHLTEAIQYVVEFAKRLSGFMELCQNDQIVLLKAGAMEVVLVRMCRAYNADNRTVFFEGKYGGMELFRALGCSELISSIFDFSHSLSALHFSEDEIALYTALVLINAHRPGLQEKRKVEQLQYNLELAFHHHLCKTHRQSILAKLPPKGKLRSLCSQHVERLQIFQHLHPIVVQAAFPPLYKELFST
Method in brief: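 HEK-293 cells were co-transfected with Gal4-RORγ-LBD and a Gal4-luciferase reporter, then exposed overnight at 37 °C to compounds with […] ursolic acid present (0.2% DMSO). Luminescence was read with One-Glo after 10 min at RT, untreated signal was set as 100, and Max Response was taken as the upper plateau of a 4-parameter logistic fit.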

RORγ-LBD = biological target: T2, RORγ-LBD (Homo sapiens, UniProt P51449); assay: RORγ-Ligand Binding Domain (LBD) TR-FRET Assay; type: biochemical; conditions: RORγ-LBD TR-FRET
T2 construct: made in house; host or cells: SF9 cells (baculovirus); used as diluted lysate
T2 sequence (P51449 269-508 limits assumed): T1 sequence (P51449 269-508 limits assumed)
Method in brief: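 His-tagged RORγ-LBD from SF9 baculovirus lysate, ~3 nM final, in 50 mM Tris pH 7.0, 50 mM KCl, 1 mM EDTA, 0.1 mM DTT, 0.01% BSA. Biotinylated SRC1 LXXLL peptide at 200 nM final with 2 μM ursolic acid; TR-FRET read-out, 1% DMSO final.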

SMILES	pEC50 (Gal4-RORγ-LBD)	pEC50 (RORγ-LBD)
CCOc1ncc(C(F)(F)F)cc1S(=O)(=O)N1C[C@H](CCC(=O)O)Oc2ccc(/C=C(\C)c3c(Cl)cccc3C(F)(F)F)cc21 [Example 77, (S,E)-3-(6-(2-(2-Chloro-6-(trifluoromethyl)phenyl)prop-1-en-1-yl)-4-((2-ethoxy-5-(trifluoromethyl)pyridin-3-yl)sulfonyl)-3,4-dihydro-2H-benzo[b][1,4]oxazin-2-yl)propanoic acid]	5.30 to 6.30	> 6.30
COC(=O)CC[C@H]1CN(S(=O)(=O)c2cc(C(F)(F)F)cnc2OC[C@@H](C)O)c2cc(/C=C/c3c(F)cccc3Cl)ccc2O1 [Example 78, Methyl 3-((S)-6-((E)-2-chloro-6-fluorostyryl)-4-((2-((R)-2-hydroxypropoxy)-5-(trifluoromethyl)pyridin-3-yl)sulfonyl)-3,4-dihydro-2H-benzo[b][1,4]oxazin-2-yl)propanoate]	5.30 to 6.30	5.30 to 6.30
C[C@@H](O)COc1ncc(C(F)(F)F)cc1S(=O)(=O)N1C[C@H](CCC(=O)O)Oc2ccc(/C=C/c3c(F)cccc3Cl)cc21 [Example 79, 3-((S)-6-((E)-2-Chloro-6-fluorostyryl)-4-((2-((R)-2-hydroxypropoxy)-5-(trifluoromethyl)pyridin-3-yl)sulfonyl)-3,4-dihydro-2H-benzo[b][1,4]oxazin-2-yl)propanoic acid]	5.30 to 6.30	> 6.30
CCn1cc(S(=O)(=O)N2C[C@H](CCC(=O)O)Oc3ccc(/C=C(\C)c4c(F)cccc4Cl)cc32)c(OCCO)n1 [Example 80, (S,E)-3-(6-(2-(2-Chloro-6-fluorophenyl)prop-1-en-1-yl)-4-((1-ethyl-3-(2-hydroxyethoxy)-1H-pyrazol-4-yl)sulfonyl)-3,4-dihydro-2H-benzo[b][1,4]oxazin-2-yl)propanoic acid]	5.30 to 6.30	> 6.30
COC(=O)CC[C@H]1CN(S(=O)(=O)c2cccc(C(F)F)c2)c2cc(/C=C/c3c(Cl)cccc3C(F)(F)F)ccc2O1 [Example 81, Methyl (S,E)-3-(6-(2-chloro-6-(trifluoromethyl)styryl)-4-((3-(difluoromethyl)phenyl)sulfonyl)-3,4-dihydro-2H-benzo[b][1,4]oxazin-2-yl)propanoate]	> 6.30	> 6.30
O=C(O)CC[C@H]1CN(S(=O)(=O)c2cccc(C(F)F)c2)c2cc(/C=C/c3c(Cl)cccc3C(F)(F)F)ccc2O1 [Example 82, (S,E)-3-(6-(2-Chloro-6-(trifluoromethyl)styryl)-4-((3-(difluoromethyl)phenyl)sulfonyl)-3,4-dihydro-2H-benzo[b][1,4]oxazin-2-yl)propanoic acid]	> 6.30	> 6.30
COC(=O)CC[C@H]1CN(S(=O)(=O)c2cccc(C(C)(F)F)c2)c2cc(/C=C/c3c(Cl)cccc3C(F)(F)F)ccc2O1 [Example 83, Methyl (S,E)-3-(6-(2-chloro-6-(trifluoromethyl)styryl)-4-((3-(1,1-difluoroethyl)phenyl)sulfonyl)-3,4-dihydro-2H-benzo[b][1,4]oxazin-2-yl)propanoate]	5.30 to 6.30	> 6.30
CC(F)(F)c1cccc(S(=O)(=O)N2C[C@H](CCC(=O)O)Oc3ccc(/C=C/c4c(Cl)cccc4C(F)(F)F)cc32)c1 [Example 84, (S,E)-3-(6-(2-Chloro-6-(trifluoromethyl)styryl)-4-((3-(1,1-difluoroethyl)phenyl)sulfonyl)-3,4-dihydro-2H-benzo[b][1,4]oxazin-2-yl)propanoic acid]	> 6.30	> 6.30
C/C(=C\c1ccc2c(c1)N(S(=O)(=O)c1cn(C3CC3)nc1OCCO)C[C@H](CCC(=O)O)O2)c1c(F)cccc1Cl [Example 85, (S,E)-3-(6-(2-(2-Chloro-6-fluorophenyl)prop-1-en-1-yl)-4-((1-cyclopropyl-3-(2-hydroxyethoxy)-1H-pyrazol-4-yl)sulfonyl)-3,4-dihydro-2H-benzo[b][1,4]oxazin-2-yl)propanoic acid]	> 6.30	> 6.30
C/C(=C\c1ccc2c(c1)N(S(=O)(=O)c1ccc(F)c(C(F)(F)F)c1)C[C@H](CCC(=O)O)O2)c1c(F)cccc1Cl [Example 86A, (S,E)-3-(6-(2-(2-chloro-6-fluorophenyl)prop-1-en-1-yl)-4-((4-fluoro-3-(trifluoromethyl)-phenyl)sulfonyl)-3,4-dihydro-2H-benzo[b][1,4]oxazin-2-yl)-propanoic acid]	5.30 to 6.30	> 6.30
COC(=O)CC[C@H]1CN(S(=O)(=O)c2cccc(C(F)(F)F)c2)c2cc(/C=C(\C)c3ccccc3)ccc2O1 [Example 86AB, (S,E)-methyl 3-(6-(2-phenylprop-1-en-1-yl)-4-((3-(trifluoromethyl)-phenyl)sulfonyl)-3,4-dihydro-2H-benzo[b][1,4]oxazin-2-yl)propanoate]	5.30 to 6.30	> 6.30
C/C(=C\c1ccc2c(c1)N(S(=O)(=O)c1cccc(C(F)(F)F)c1)C[C@H](CCC(=O)O)O2)c1c(C)noc1C [Example 86AC, (S,E)-3-(6-(2-(3,5-dimethylisoxazol-4-yl)prop-1-en-1-yl)-4-((3-(trifluoromethyl)phenyl)sulfonyl)-3,4-dihydro-2H-benzo[b][1,4]oxazin-2-yl)propanoic acid]	< 5.00	> 6.30
COC(=O)CC[C@H]1CN(S(=O)(=O)c2cccc(C(F)(F)F)c2)c2cc(/C=C(\C)c3c(C)noc3C)ccc2O1 [Example 86AD, (S,E)-methyl 3-(6-(2-(3,5-dimethylisoxazol-4-yl)prop-1-en-1-yl)-4-((3-(trifluoromethyl)-phenyl)sulfonyl)-3,4-dihydro-2H-benzo[b][1,4]oxazin-2-yl)-propanoate]	5.30 to 6.30	> 6.30
COC(=O)CC[C@H]1CN(S(=O)(=O)c2cccc(C(F)(F)F)c2)c2cc(/C=C(\C)c3c(Cl)cccc3Cl)ccc2O1 [Example 86AF, (S,E)-methyl 3-(6-(2-(2,6-dichlorophenyl)prop-1-en-1-yl)-4-((3-(trifluoromethyl)phenyl)-sulfonyl)-3,4-dihydro-2H-benzo[b][1,4]oxazin-2-yl)propanoate]	5.30 to 6.30	> 6.30
C/C(=C\c1ccc2c(c1)N(S(=O)(=O)c1cccc(C(F)(F)F)c1)C[C@H](CCC(=O)O)O2)c1ccccc1C(F)(F)F [Example 86AG, (S,E)-3-(6-(2-(2-(trifluoromethyl)-phenyl)prop-1-en-1-yl)-4-((3-(trifluoromethyl)phenyl)sulfonyl)-3,4-dihydro-2H-benzo[b][1,4]-oxazin-2-yl)propanoic acid]	> 6.30	> 6.30
COC(=O)CC[C@H]1CN(S(=O)(=O)c2cccc(C(F)(F)F)c2)c2cc(/C=C(\C)c3ccccc3C(F)(F)F)ccc2O1 [Example 86AH, (S,E)-methyl 3-(6-(2-(2-(trifluoromethyl)phenyl)prop-1-en-1-yl)-4-((3-(trifluoromethyl)phenyl)-sulfonyl)-3,4-dihydro-2H-benzo[b][1,4]oxazin-2-yl)propanoate]	5.30 to 6.30	> 6.30
COC(=O)CC[C@H]1CN(S(=O)(=O)c2cccc(C(F)(F)F)c2)c2cc(/C=C(\C)c3ccccc3C)ccc2O1 [Example 86AL, (S,E)-methyl 3-(6-(2-(o-tolyl)prop-1-en-1-yl)-4-((3-(trifluoromethyl)-phenyl)sulfonyl)-3,4-dihydro-2H-benzo[b][1,4]oxazin-2-yl)propanoate]	5.30 to 6.30	> 6.30
C/C(=C\c1ccc2c(c1)N(S(=O)(=O)c1cccc(C(F)(F)F)c1C)C[C@H](CCC(=O)O)O2)c1c(F)cccc1Cl [Example 86AM, (S,E)-3-(6-(2-(2-chloro-6-fluorophenyl)prop-1-en-1-yl)-4-((2-methyl-3-(trifluoromethyl)-phenyl)sulfonyl)-3,4-dihydro-2H-benzo[i,4]oxazin-2-yl)propanoic acid]	5.30 to 6.30	> 6.30
COC(=O)CC[C@H]1CN(S(=O)(=O)c2cccc(C(F)(F)F)c2C)c2cc(/C=C(\C)c3c(F)cccc3Cl)ccc2O1 [Example 86AN, (S,E)-methyl 3-(6-(2-(2-chloro-6-fluorophenyl)prop-1-en-1-yl)-4-((2-methyl-3-(trifluoromethyl)-phenyl)sulfonyl)-3,4-dihydro-2H-benzo[b][1,4]oxazin-2-yl)propanoate]	5.30 to 6.30	> 6.30
C/C(=C\c1ccc2c(c1)N(S(=O)(=O)c1ccc(C)c(C(F)(F)F)c1)C[C@H](CCC(=O)O)O2)c1c(F)cccc1Cl [Example 86AO, (S,E)-3-(6-(2-(2-chloro-6-fluorophenyl)prop-1-en-1-yl)-4-((4-methyl-3-(trifluoromethyl)-phenyl)sulfonyl)-3,4-dihydro-2H-benzo[b][1,4]oxazin-2-yl)propanoic acid]	> 6.30	> 6.30
COC(=O)CC[C@H]1CN(S(=O)(=O)c2cc(F)cc(C(F)(F)F)c2)c2cc(/C=C(\C)c3c(F)cccc3Cl)ccc2O1 [Example 86AR, (S,E)-methyl 3-(6-(2-(2-chloro-6-fluorophenyl)prop-1-en-1-yl)-4-((3-fluoro-5-(trifluoromethyl)-phenyl)sulfonyl)-3,4-dihydro-2H-benzo[b][1,4]oxazin-2-yl)propanoate]	5.30 to 6.30	> 6.30
